According to PubChem BioAssay (NCI):
Where “and” joins values, the source holds several entries; their conditions need not be identical. Equal entries are not always repeated.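 How tested: cells in 96-well plates exposed to compound for 48 hours at five concentrations. GI50 = concentration required for 50% inhibition of growth. TGI marks complete inhibition of growth.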

Legend:
Assay in all cases: growth of human tumour cells (NCI), 48 h
A498 renal = system: A498 renal
ACHN renal = system: ACHN renal
CCRF-CEM leukemia = system: CCRF-CEM leukemia
HL-60(TB) leukemia = system: HL-60(TB) leukemia
MDA-MB-435 = system: MDA-MB-435
MOLT-4 leukemia = system: MOLT-4 leukemia
NCI-H522 lung = system: NCI-H522 lung
RXF 393 renal = system: RXF 393 renal
T-47D breast = system: T-47D breast
UACC-257 melanoma = system: UACC-257 melanoma

Compound	GI50 (A498 renal)	TGI (A498 renal)	GI50 (ACHN renal)	TGI (ACHN renal)	GI50 (CCRF-CEM leukemia)	TGI (CCRF-CEM leukemia)	GI50 (HL-60(TB) leukemia)	TGI (HL-60(TB) leukemia)	GI50 (MDA-MB-435) [µM]	TGI (MDA-MB-435)	GI50 (MOLT-4 leukemia) [µM]	TGI (MOLT-4 leukemia)	GI50 (NCI-H522 lung)	TGI (NCI-H522 lung)	GI50 (RXF 393 renal)	TGI (RXF 393 renal)	GI50 (T-47D breast) [µM]	TGI (T-47D breast)	GI50 (UACC-257 melanoma) [µM]	TGI (UACC-257 melanoma)
CCOc1ccc2nc(-c3cccc(OCC(=O)NC(C)C)c3)nc(Nc3ccc(-c4cn[nH]c4)cc3)c2c1	2.54 µM	9.85 µM	0.675 µM	2.96 µM	0.315 µM	> 51.6 µM	0.661 µM	3.41 µM	0.485	3.81 µM	0.319	> 31.9 µM	0.62 µM	3.33 µM	0.401 µM	2.16 µM	0.292	3.57 µM	1.79	4.12 µM
OC(C1CO1)C(O)C1CO1 (stereo unspecified)	116 µM	134 µM and 263 µM	–	52.2 µM and 156 µM	1.53 µM	120 µM and 392 µM	2.33 µM	65.2 µM and 49.5 µM	46.1	150 µM and 246 µM	1.95	103 µM and 239 µM	11.3 µM	94.8 µM and 175 µM	71.4 µM	139 µM and 231 µM	–	150 µM and 425 µM	56.1	141 µM and 244 µM
Fc1cccc(CSc2ncnc3c2ncn3C2CCCS2)c1 (stereo unspecified)	–	41.8 µM	–	39.7 µM	–	46.6 µM	–	32.1 µM	–	38.4 µM	–	24 µM	–	44 µM	–	92.2 µM	–	> 100 µM	–	29.6 µM
O=c1oc(-c2ccccc2)cc2cccc(O)c12	21 µM	48 µM	25.9 µM	> 73.1 µM	> 100 µM	> 100 µM	63.5 µM	> 100 µM	69	> 100 µM	66.3	> 100 µM	49.9 µM	> 100 µM	24.8 µM	> 70.9 µM	13.6	> 100 µM	> 71.9	> 100 µM
N#Cc1ccc(C2C3=C(CCCC3=O)OC3=C2C(=O)c2ccccc2C3=O)cc1 (stereo unspecified)	13.9 µM	27 µM	1.55 µM	2.89 µM	0.951 µM	> 100 µM	0.259 µM	1.27 µM	0.216	0.444 µM	1.63	5.53 µM	1.99 µM	4.31 µM	1.86 µM	3.59 µM	0.453	2.24 µM	1.55	2.94 µM
COc1cc(F)cc([C@@H](CO)NC(=O)[C@@H](C)N2Cc3ccc(-c4nc(NC5CCOCC5)ncc4Cl)cc3C2=O)c1	0.0878 µM	5.86 µM	1.54 µM	99.1 µM	17.1 µM	> 92.8 µM	< 0.01 µM	0.859 µM	0.0347	31.8 µM	7.42	34.1 µM	13.4 µM	60.4 µM	0.205 µM	19.8 µM	5.03	33 µM	< 0.01	0.0367 µM
CCOC(=O)NC1=C(N2CC2)C(=O)C(NC(=O)OCC)=C(N2CC2)C1=O	8.08 µM and 5.41 µM	20.3 µM and 9.75 µM and 12.5 µM	1.32 µM and 1.06 µM	20.3 µM and 12.7 µM and 23.6 µM	3.47 µM and 1.88 µM	9.8 µM and 16.1 µM and 12.1 µM	1.85 µM and 0.403 µM	11 µM and 4 µM and 1.49 µM	–	7.28 µM	3.25	12.6 µM and 11 µM	5.95 µM and 4.17 µM	17.5 µM and 9.09 µM and 9.12 µM	13 µM and 5.74 µM	25 µM and 14.4 µM and 12.9 µM	–	16.8 µM	6.96	25 µM and 19.9 µM
Oc1ccc2ccccc2c1C1NN=C(c2ccccc2)S1 (stereo unspecified)	1.34 µM	14.1 µM	0.343 µM	> 40 µM	0.359 µM	> 100 µM	0.353 µM	4.13 µM	0.632	42.4 µM	0.467	> 56.9 µM	0.307 µM	13.5 µM	0.812 µM	20 µM	0.525	33.5 µM	0.561	12 µM
COc1ccc(-c2cn(-c3cccc(C(=O)/C=C/c4ccc(O)c(OC)c4)c3)c(=O)[nH]2)cc1	3.51 µM	13.1 µM	2.55 µM	6.22 µM	1.19 µM	5.81 µM	2.5 µM	16 µM	3.19	> 62.2 µM	2.87	> 23.8 µM	2.6 µM	10.7 µM	5.85 µM	28.6 µM	3.27	40.8 µM	8.03	39.3 µM
CC(C)[NH-].CC(C)[NH-].O.O.[Cl][Pt+2][Cl]	150 µM	358 µM	14.1 µM	107 µM	6.59 µM	97.7 µM	15.3 µM	83.7 µM	26	76.2 µM	10.2	132 µM	20.4 µM	74.2 µM	26.6 µM	137 µM	50.9	381 µM	87.4	279 µM
COc1ccc2nc3cc([N+](=O)[O-])ccc3c(NCCCN(CCO)CCO)c2c1	18 µM	38.6 µM	10 µM	23 µM	3.78 µM	14.6 µM	2.56 µM	22.7 µM	2.27	5.67 µM	2.59	5.99 µM	1.36 µM	2.86 µM	2.93 µM	11.5 µM	1.62	7.5 µM	2.82	7.55 µM
O=C(NCCCCCCNC(=O)n1cc(F)c(=O)[nH]c1=O)NCCCOCCOCCOCCOCCOCCOCCOCCOCCOCCOCCOCCOCCOCCOCCOCCOCCOCCOCCOCCOCCOCCCNC(=O)C(O)C(O)C(OC1OC(CO)C(O)C(O)C1O)C(O)CO (stereo unspecified)	–	> 100 µM	–	> 100 µM	–	> 100 µM	–	> 100 µM	–	> 100 µM	–	> 100 µM	–	> 100 µM	–	> 100 µM	–	> 100 µM	–	> 100 µM
O=C(O)c1ccc2c3c(ncnc13)-c1ccccc1C2=O	1.96 µM	10.9 µM	25.7 µM	> 100 µM	> 84.6 µM	> 100 µM	27.3 µM	> 100 µM	1.72	3.59 µM	> 100	> 100 µM	13.8 µM	> 100 µM	> 47.2 µM	> 100 µM	> 100	> 100 µM	8.6	> 100 µM
Cc1ccc(C(=O)/C(=C\c2ccc([N+](=O)[O-])cc2)S(=O)Cc2ccc(F)cc2)cc1 (stereo unspecified)	2.48 µM	6.04 µM	1.86 µM	3.6 µM	0.752 µM	> 100 µM	1.67 µM	5.02 µM	1.76	3.65 µM	1.3	5.58 µM	1.55 µM	3.01 µM	1.78 µM	3.28 µM	1.91	5.51 µM	1.93	3.69 µM
Nc1nc2ccc3[nH]ncc3c2c2c1CCCC2	1.64 µM	3.49 µM	1.56 µM	10.5 µM	2.7 µM	12.5 µM	2.31 µM	5.72 µM	1.52	3.36 µM	2.81	10.8 µM	2.17 µM	5.88 µM	0.399 µM	1.77 µM	2.55	11.7 µM	3.28	11.6 µM
O=C(O)C1C(=O)Oc2c(cccc2[N+](=O)[O-])C1O (stereo unspecified)	–	> 100 µM	–	> 100 µM	–	> 100 µM	–	> 100 µM	–	> 100 µM	–	> 100 µM	–	> 100 µM	–	> 100 µM	–	> 100 µM	–	> 100 µM
O=CC(Br)C(Br)c1ccccc1 (stereo unspecified)	13.9 µM	29.5 µM	1.64 µM	3.12 µM	0.374 µM	1.94 µM	0.462 µM	2.32 µM	1.74	3.63 µM	0.904	3.89 µM	1.72 µM	3.56 µM	1.82 µM	3.78 µM	0.942	3.17 µM	1.9	4.56 µM
O=C1NC(=O)C(c2ccc(Cl)cc2)=C1Nc1ccc(Cl)c(C(=O)O)c1	> 25 µM	> 25 µM	> 25 µM	> 25 µM	> 25 µM	> 25 µM	> 25 µM	> 25 µM	> 25	> 25 µM	> 25	> 25 µM	> 25 µM	> 25 µM	> 25 µM	> 25 µM	> 25	> 25 µM	> 25	> 25 µM
